Experimental data published in US12558343B2, “Medical use of icaritin” (Lunan Pharmaceutical Group Corporation, priority 2020, dated 2026).
Where two headings read alike, the source gives them in different places. Marks after values point to notes of the source that are not given here.

Columns and labels:
[1] = system: gastrointestinal bleeding caused by aspirin; assay: Gastrointestinal bleeding caused by aspirin in rats, gastric mucosal bleeding; format: in vivo, SD rats; conditions: icaritin 18 mg/kg i.g. with aspirin 500 mg/kg i.g., 24 h
Procedure: After 24 h of the intragastric administration, the rats were anesthetized, sacrificed, and dissected. Bleeding, erosion and ulcers of the gastric mucosa surface of the rats were observed.

[2] = system: activated partial thromboplastin time; assay: Activated partial thromboplastin time, rabbit model of acquired hemophilia A; format: in vivo, New Zealand rabbits
Procedure: Twenty-four healthy New Zealand rabbits were selected and randomly divided into a control group, a model group and a treatment group with 8 rabbits in each group. Each rabbit weighed about 1.5 kg. The rabbits were fed in separate stainless steel cages at a room temperature of 18-25° C. The rabbits in each group were given a normal diet without any special treatment. One week later, the rabbit was anesthetized with 2% pentobarbital (1.5 ml/kg) via the marginal ear vein, and the left femoral vein of the rabbit was isolated and exposed for injection. The plasma of patients with acquired hemophilia A (confirmed by the Department of Hematology, Linyi People's Hospital) was intravenously injected into the rabbits in the model group and the treatment group at 2 ml/kg of rabbit body weight. The rabbits in the treatment group were immediately intragastrically administrated with icaritin at 18 mg/kg after the injection was completed and the rabbits in the model group were intragastrically administrated with a same amount of normal saline. The rabbits in the control group were intravenously injected with a same amount of normal human plasma. Blood was drawn from the marginal ear vein 30 min before and 30 min, 60 min, 90 min, and 120 min after the injection of the plasma separately, 3.8% of sodium citrate (1:9) was added for anticoagulation, and the anticoagulated blood was centrifuged at 3,000 r/m to separate plasma.
Referring to the instructions of the kit, 0.1 mL of rabbit plasma was taken, 0.1 mL of a thromboplastin time reagent was added, the materials were mixed, an obtained mixture was subjected to warm bath at 37° C. for 2 min, 0.1 mL of 0.025 M calcium chloride pre-warmed at 37° C. was added, the materials were uniformly mixed, a value of thromboplastin time at each time point was measured by immediately starting a stopwatch, the thromboplastin time at each time point was repeatedly detected twice, and an average value was obtained.

[3] = mouse, in vivo
Procedure: After the grouping, the mice in the normal group and the model group were intragastrically administrated with 10 ml/kg of an icaritin solvent which was prepared by adding 12 g of hypromellose E5 and 0.1 g of sodium lauryl sulfate into 1 L of water. […] One hour after the last pre-administration, the mice in the model group and each administration group were injected with 150 U/kg of a heparin sodium injection through a tail vein to establish a model, and the mice in the normal group were injected with 10 ml/kg of a sodium chloride injection through a tail vein.
After the bleeding time was detected, the mice were anesthetized with sodium pentobarbital, blood was collected from an abdominal cardinal vein, and indicators of blood routine examination and four coagulation indicators (prothrombin time, thromboplastin time, thrombin time, and fibrinogen) were detected.

[4] = system: platelets (activation induced by adenosine diphosphate); assay: Platelet activation induced by adenosine diphosphate, flow cytometry (CD62p/CD61), blood of dosed rats; format: in vivo, SD rats; conditions: for Activation rate of platelets activated by adenosine diphosphate, Basic value / Spontaneous activation rate: before administration; for Spontaneous activation rate: no adenosine diphosphate; for Activation-promoting rate: after vs basic value; for Activation rate of platelets activated by adenosine diphosphate, After administration: 20 min after last administration
Procedure: 0.5 mL of blood was collected from the orbit of the rat and 3.8% sodium citrate was added for anticoagulation (a ratio of blood to anticoagulant was 9:1) to prepare anticoagulated blood. 50 μL of anticoagulated blood was taken from each animal for determination of spontaneous platelet activation rate; and another 50 μL of anticoagulated blood was taken and 50 μL of adenosine diphosphate with a final concentration of 10 μmol was added for activation. 1.0-1.5 μL of each of CD62pPE/Cy7 and CD61PE was added to double-label the 2 anticoagulated blood, CD61 was used to label all the platelets and CD62p was used to label the activated platelets. […] The rats were double-labeled with G2a-PE/Cy7 and G-PE […] as a control. Each tube containing the treated blood was incubated at 4° C. in a dark place for 20 min; and 0.5 mL of 4% paraformaldehyde was added to fix for 10 min. 50 μL of the fixed blood sample was taken and diluted with 1 mL of a diluent, and the diluted sample was analyzed on a flow cytometer. Platelet populations were delineated in a CD61PE/Side Angle Light Scattering (SSC) two-parameter scatterplot, 5,000 platelets were counted, the number of CD61 and CD62p-positive cells was further counted in a CD61/CD62p scatterplot, and a percentage of a positive expression rate of CD62p in an expression rate of CD61 reflected a platelet activation rate (%).
Twenty-four rats were taken and divided into 3 groups with 8 rats in each group. […] 1.0 mL of blood was collected from the orbits before administration and 20 min after a last administration, wherein 0.5 mL was used for a blood routine examination and 0.5 mL was used to prepare anticoagulated blood. The blood was treated and analyzed on the flow cytometer according to the detection method of platelet activation by flow cytometry. An activation rate of platelets activated by adenosine diphosphate (basic value) before administration and an activation rate of platelets activated by adenosine diphosphate after administration were compared. At the same time, 50 μL of anticoagulated blood was taken from the rats before administration, adenosine diphosphate was not added, and a spontaneous activation rate of the anticoagulated blood of animals was measured using the same method. The animals were fasted for 16-24 h before each blood sampling.

COc1ccc(-c2oc3c(CC=C(C)C)c(O)cc(O)c3c(=O)c2O)cc1 [Icaritin]
Bleeding rate ([1]; model group 66.7): 16.7^## %
Number of bleeding animals ([1]; of 12 rats): 2
Thromboplastin time ([2]; icaritin 18 mg/kg i.g. after plasma injection, 30 min after injection): 40.4 ± 3.23^$
Thromboplastin time ([2]; icaritin 18 mg/kg i.g., 60 min after injection): 39.9 ± 4.09$ $
Thromboplastin time ([2]; icaritin 18 mg/kg i.g., 90 min after injection): 40.4 ± 5.67$ $
Thromboplastin time ([2]; icaritin 18 mg/kg i.g., 120 min after injection): 41.3 ± 6.21^$ $
Thromboplastin time ([2]; treatment group, 30 min before injection of patient plasma (before icaritin)): 36.8 ± 4.12
Number of erythrocytes ([3]; 2 mg/kg): 7.109 ± 0.656 10^12/L
Number of leukocytes ([3]; 2 mg/kg): 1.895 ± 0.207 10^9/L
Number of platelets ([3]; 2 mg/kg): 1046 ± 136 10^9/L
Number of erythrocytes ([3]; 6 mg/kg): 7.111 ± 0.634 10^12/L
Number of leukocytes ([3]; 6 mg/kg): 1.934 ± 0.199 10^9/L
Number of platelets ([3]; 6 mg/kg): 1110 ± 128 10^9/L
Number of erythrocytes ([3]; 18 mg/kg): 7.090 ± 0.761 10^12/L
Number of leukocytes ([3]; 18 mg/kg): 1.888 ± 0.223 10^9/L
Number of platelets ([3]; 18 mg/kg): 1059 ± 170 10^9/L
Activation rate of platelets activated by adenosine diphosphate, Basic value ([4]; 3 mg/kg group): 44.02 ± 11.21%
Spontaneous activation rate ([4]; 3 mg/kg group): 0.60 ± 0.11%
Activation-promoting rate ([4]; 3 mg/kg i.g. 3 days): 32.12%
Activation rate of platelets activated by adenosine diphosphate, After administration ([4]; 3 mg/kg i.g. once a day 3 days): 58.16 ± 13.41%
Activation rate of platelets activated by adenosine diphosphate, Basic value ([4]; 6 mg/kg group): 47.19 ± 13.12%
Spontaneous activation rate ([4]; 6 mg/kg group): 0.59 ± 0.20%
Activation-promoting rate ([4]; 6 mg/kg i.g. 3 days): 38.22%
Activation rate of platelets activated by adenosine diphosphate, After administration ([4]; 6 mg/kg i.g. once a day 3 days): 65.23 ± 16.78%
Activation rate of platelets activated by adenosine diphosphate, Basic value ([4]; 18 mg/kg group): 50.34 ± 19.22%
Spontaneous activation rate ([4]; 18 mg/kg group): 0.61 ± 0.14%
Activation-promoting rate ([4]; 18 mg/kg i.g. 3 days): 55.84%
Activation rate of platelets activated by adenosine diphosphate, After administration ([4]; 18 mg/kg i.g. once a day 3 days): 78.45 ± 20.22%
